Experimental data published in patent publication US11787825B2 (priority 2021, dated 2023).
In brackets after ≈: the same amount, converted by molar mass. Marks after values point to notes of the source that are not given here.

Columns and labels:
[1] = 1.0% DMSO, 24-hour incubation at ambient temperature, maximum theoretical compound concentration 100 μM
[2] = Beagle, in vivo, po
physchem = details: fasted state simulated intestinal fluid (FaSSIF), 25 °C, fassif, thermodynamic from solid

Compound: CN(C(=O)N(c1nn(CC(F)(F)F)c2c(-c3ccc(C#CC(C)(C)S(C)(=O)=O)nc3[C@H](Cc3cc(F)cc(F)c3)NC(=O)Cn3nc(C(F)(F)F)c4c3C(F)(F)[C@@H]3C[C@H]43)ccc(Cl)c12)S(C)(=O)=O)c1ncc(C(=O)O)cc1COP(=O)(O)O [Compound 62, 6-(3-(4-chloro-7-(2-((S)-1-(2-((3bS,4aR)-5,5-difluoro-3-(trifluoromethyl)-3b,4,4a,5-tetrahydro-1H-cyclopropa[3,4]cyclopenta[1,2-c]pyrazol-1-yl)acetamido)-2-(3,5-difluorophenyl)ethyl)-6-(3-methyl-3-(methylsulfonyl)but-1-yn-1-yl)pyridin-3-yl)-1-(2,2,2-trifluoroethyl)-1H-indazol-3-yl)-1-methyl-3-(methylsulfonyl)ureido)-5-((phosphonooxy)methyl)nicotinic acid]
- pH 2 solubility ([1]; 0.1N HCL): 1 μM
- pH 7 solubility ([1]; 1×PBS buffer (pH 7.4)): 67 μM
- Dog F % (solution) [2]: 8 ^c %
- solubility (physchem): 490 µg/mL (≈ 390 µM)
